# How the values were obtained:
# Type in all cases: cell-based
# [1] = tested on: P. cepacia A21213; assay: MIC, agar dilution; conditions: Burkholderia cepacia, Mueller-Hinton agar pH 7.2, 32° C., 18 hr, 10^6 cells/ml
# Description: (§1) Minimum inhibitory concentrations (MICs) of the present series of cephalosporins were determined against 32 strains of test organisms by two-fold serial agar dilution method in Mueller-Hinton agar. Geometric means of MICs were calculated against six groups of the test organisms which are classified as follows and summarized in Table 1.
# (§2) Medium; MuellerHinton agar (pH = 7.2)
# (§3) Incubation temperature: 32° C., 18 hr
# (§4) Inoculum size; 10^6 cells/ml
# [2] = tested on: S. marcescens IPM-16; assay: MIC, agar dilution; conditions: Serratia marcescens, IPM16, Mueller-Hinton agar pH 7.2, 32° C., 18 hr, 10^6 cells/ml
# Description: as §1, §2, §3, §4
# [3] = tested on: P. rettgeri IPM-14; assay: MIC, agar dilution; conditions: Providencia rettgeri, IPM14, Mueller-Hinton agar pH 7.2, 32° C., 18 hr, 10^6 cells/ml
# Description: as §1, §2, §3, §4
# [4] = tested on: S. aureus IPM-24 (MRSA); assay: MIC, agar dilution; conditions: Staphylococcus aureus, Mueller-Hinton agar pH 7.2, 32° C., 18 hr, 10^6 cells/ml
# Description: as §1, §2, §3, §4
# [5] = tested on: E. cloacae IPM-12; assay: MIC, agar dilution; conditions: Enterobacter cloacae, IPM12, Mueller-Hinton agar pH 7.2, 32° C., 18 hr, 10^6 cells/ml
# Description: as §1, §2, §3, §4
# [6] = tested on: X. maltophilia GN 12873; assay: MIC, agar dilution; conditions: Stenotrophomonas maltophilia, GN12873, Mueller-Hinton agar pH 7.2, 32° C., 18 hr, 10^6 cells/ml
# Description: as §1, §2, §3, §4
# [7] = tested on: P. cepacia No. 651; assay: MIC, agar dilution; conditions: Burkholderia cepacia, Mueller-Hinton agar pH 7.2, 32° C., 18 hr, 10^6 cells/ml
# Description: as §1, §2, §3, §4
# [8] = tested on: K. pneumoniae PCI 602; assay: MIC, agar dilution; conditions: Klebsiella pneumoniae, PCI602, Mueller-Hinton agar pH 7.2, 32° C., 18 hr, 10^6 cells/ml
# Description: as §1, §2, §3, §4
# [9] = tested on: C. freundii GN 7391; assay: MIC, agar dilution; conditions: Citrobacter freundii, GN7391, Mueller-Hinton agar pH 7.2, 32° C., 18 hr, 10^6 cells/ml
# Description: as §1, §2, §3, §4
# [10] = tested on: C. terrigena IFO 12685; assay: MIC, agar dilution; conditions: Mueller-Hinton agar pH 7.2, 32° C., 18 hr, 10^6 cells/ml
# Description: as §1, §2, §3, §4
# [11] = tested on: P. mirabilis IFO-2849; assay: MIC, agar dilution; conditions: Proteus mirabilis, IFO2849, Mueller-Hinton agar pH 7.2, 32° C., 18 hr, 10^6 cells/ml
# Description: as §1, §2, §3, §4
# [12] = tested on: M. morgani 1510/9; assay: MIC, agar dilution; conditions: Mueller-Hinton agar pH 7.2, 32° C., 18 hr, 10^6 cells/ml
# Description: as §1, §2, §3, §4
# [13] = tested on: S. marcescens IPM-15; assay: MIC, agar dilution; conditions: Serratia marcescens, IPM15, Mueller-Hinton agar pH 7.2, 32° C., 18 hr, 10^6 cells/ml
# Description: as §1, §2, §3, §4
# [14] = tested on: P. aeruginosa A20599; assay: MIC, agar dilution; conditions: Pseudomonas aeruginosa, Mueller-Hinton agar pH 7.2, 32° C., 18 hr, 10^6 cells/ml
# Description: as §1, §2, §3, §4
# [15] = tested on: B. subtilis PCI 219; assay: MIC, agar dilution; conditions: Bacillus subtilis, PCI219, Mueller-Hinton agar pH 7.2, 32° C., 18 hr, 10^6 cells/ml
# Description: as §1, §2, §3, §4
# [16] = tested on: E. faecium A24817; assay: MIC, agar dilution; conditions: Enterococcus faecium, Mueller-Hinton agar pH 7.2, 32° C., 18 hr, 10^6 cells/ml
# Description: as §1, §2, §3, §4
# [17] = tested on: P. vulgaris IPM-13; assay: MIC, agar dilution; conditions: Proteus vulgaris, IPM13, Mueller-Hinton agar pH 7.2, 32° C., 18 hr, 10^6 cells/ml
# Description: as §1, §2, §3, §4
# [18] = tested on: E. faecalis A9808; assay: MIC, agar dilution; conditions: Enterococcus faecalis, Mueller-Hinton agar pH 7.2, 32° C., 18 hr, 10^6 cells/ml
# Description: as §1, §2, §3, §4
# [19] = tested on: S. epidermidis 11-1230; assay: MIC, agar dilution; conditions: Staphylococcus epidermidis, 111230, Mueller-Hinton agar pH 7.2, 32° C., 18 hr, 10^6 cells/ml
# Description: as §1, §2, §3, §4
# [20] = tested on: P. aeruginosa IPM-9; assay: MIC, agar dilution; conditions: Pseudomonas aeruginosa, IPM9, Mueller-Hinton agar pH 7.2, 32° C., 18 hr, 10^6 cells/ml
# Description: as §1, §2, §3, §4
# [21] = tested on: E. coli 255; assay: MIC, agar dilution; conditions: Escherichia coli, Mueller-Hinton agar pH 7.2, 32° C., 18 hr, 10^6 cells/ml
# Description: as §1, §2, §3, §4
# [22] = tested on: P. aeruginosa KKA 19; assay: MIC, agar dilution; conditions: Pseudomonas aeruginosa, KKA19, Mueller-Hinton agar pH 7.2, 32° C., 18 hr, 10^6 cells/ml
# Description: as §1, §2, §3, §4
# [23] = tested on: S. aureus 4-1015 (MRSA); assay: MIC, agar dilution; conditions: Staphylococcus aureus, Mueller-Hinton agar pH 7.2, 32° C., 18 hr, 10^6 cells/ml
# Description: as §1, §2, §3, §4
# [24] = tested on: M. luteus 1001; assay: MIC, agar dilution; conditions: Micrococcus luteus, Mueller-Hinton agar pH 7.2, 32° C., 18 hr, 10^6 cells/ml
# Description: as §1, §2, §3, §4
# [25] = tested on: S. aureus 209P; assay: MIC, agar dilution; conditions: Staphylococcus aureus; S. aureus 209P; Mueller-Hinton agar pH 7.2; 32° C., 18 hr; 10^6 cells/ml; read-out: MIC
# Description: as §1, §2, §3, §4
# [26] = tested on: X. maltophilia No. 661; assay: MIC, agar dilution; conditions: Stenotrophomonas maltophilia, Mueller-Hinton agar pH 7.2, 32° C., 18 hr, 10^6 cells/ml
# Description: as §1, §2, §3, §4
# [27] = tested on: P. aeruginosa IPM-8; assay: MIC, agar dilution; conditions: Pseudomonas aeruginosa, IPM8, Mueller-Hinton agar pH 7.2, 32° C., 18 hr, 10^6 cells/ml
# Description: as §1, §2, §3, §4
# [28] = tested on: M. morgani 1510; assay: MIC, agar dilution; conditions: Mueller-Hinton agar pH 7.2, 32° C., 18 hr, 10^6 cells/ml
# Description: as §1, §2, §3, §4
# [29] = tested on: S. aureus Smith; assay: MIC, agar dilution; conditions: Staphylococcus aureus; S. aureus Smith; Mueller-Hinton agar pH 7.2; 32° C., 18 hr; 10^6 cells/ml; read-out: MIC
# Description: as §1
# (§5) In vivo antibacterial activity was determined against three bacterial infections (S. aureus Smith, E. coli Juhl and P. aeruginosa A9843A) by intramuscular administration to mice just after the bacterial challenge. PD50 values are summarized in Table 3 in comparsion with the MIC values against the corresponding organisms.
# as §2, §3, §4
# [30] = tested on: E. coli Juhl A15119; assay: MIC, agar dilution; conditions: Escherichia coli, JUHLA15119; E. coli Juhl A15119; Mueller-Hinton agar pH 7.2; 32° C., 18 hr; 10^6 cells/ml; read-out: MIC
# Description: as §1, §5, §2, §3, §4
# [31] = tested on: P. aeruginosa A9843A; assay: MIC, agar dilution; conditions: Pseudomonas aeruginosa, A9843A, 18 h, pH 7.2
# Description: as §1, §5, §2, §3, §4
# [32] = tested on: Gn-III: Ps. aeruginosa (7); assay: MIC, two-fold serial agar dilution, Gn-III; conditions: Pseudomonas aeruginosa, Gn-III, 7 strains; Mueller-Hinton agar; read-out: Geometric mean of MIC
# Description: as §1
# Gn-III Ps. aeruginosa (7).
# [33] = tested on: Gn-Ia: Cephalothin(CET)-sensitive E. coli (2), Kl. pneumoniae (1) and Pr. mirabilis (2); assay: MIC, two-fold serial agar dilution, Gn-Ia; conditions: 5 strains, Mueller-Hinton agar, read-out: Geometric mean of MIC
# Description: as §1
# Gn-Ia Cephalothin(CET)-sensitive E. coli (2), Kl.
# pneumoniae (1) and Pr. mirabilis (2).
# [34] = tested on: Gn-II: M.morganii (1), Ent. cloacae (2) and Ser. marcescens (2); assay: MIC, two-fold serial agar dilution, Gn-II; conditions: Gn-II, 5 strains; Mueller-Hinton agar; read-out: Geometric mean of MIC
# Description: as §1
# Gn-II M.morganii (1), Ent. cloacae (2) and Ser.
# [35] = tested on: Gp-Ib: Penicillin(PC)-resistant S. aureus (5); assay: MIC, two-fold serial agar dilution, Gp-Ib; conditions: Staphylococcus aureus, 5 strains, Mueller-Hinton agar, read-out: Geometric mean of MIC
# Description: as §1
# Gp-Ib Penicillin(PC)-resistant S. aureus (5).
# [36] = tested on: Gn-Ib: Cephalothin(CET)-resistant E. coli (3) and Kl. pneumoniae (2); assay: MIC, two-fold serial agar dilution, Gn-Ib; conditions: Escherichia coli, read-out: Geometric mean of MIC, Gn-Ib, 5 strains; Mueller-Hinton agar
# Description: as §1
# Gn-Ib Cephalothin(CET)-resistant E. coli (3) and Kl.
# [37] = tested on: Gp-Ia: Penicillin(PC)-sensitive S. aureus (5 strains); assay: MIC, two-fold serial agar dilution, Gp-Ia; conditions: Staphylococcus aureus, Mueller-Hinton agar, read-out: Geometric mean of MIC
# Description: as §1
# Gp-Ia Penicillin(PC)-sensitive S. aureus (5 strains).
structure (smiles),measurement,setting,value
"CC(C)(O/N=C(\C(=O)NC1C(=O)N2C(C(=O)O)=C(/C=C/Cn3cnc4cc(O)c(O)cc43)CS[C@H]12)c1csc(N)n1)C(=O)O (stereo partly shown) [Io, 7-[(Z)-2-(2-Aminothiazol-4-yl)-2-(1-methyl-1-carboxyethoxy-imino)acetamido]-3-[(E)-3-(5,6-dihydroxybenzimidazol-1-yl)-1-propen-1-yl]-3-cephem-4-carboxylic acid]",MIC,[1],6.3 µg/mL
same,MIC,[2],25 µg/mL
same,MIC,[3],1.6 µg/mL
same,MIC,[4],100 µg/mL
same,MIC,[5],12.5 µg/mL
same,MIC,[6],3.1 µg/mL
same,MIC,[7],6.3 µg/mL
same,MIC,[8],0.05 µg/mL
same,MIC,[9],25 µg/mL
same,MIC,[10],3.1 µg/mL
same,MIC,[11],0.2 µg/mL
same,MIC,[12],0.8 µg/mL
same,MIC,[13],> 100 µg/mL
same,MIC,[14],0.8 µg/mL
same,MIC,[15],12.5 µg/mL
same,MIC,[16],> 100 µg/mL
same,MIC,[17],50 µg/mL
same,MIC,[18],> 100 µg/mL
same,MIC,[19],50 µg/mL
same,MIC,[20],25 µg/mL
same,MIC,[21],0.2 µg/mL
same,MIC,[22],0.8 µg/mL
same,MIC,[23],> 100 µg/mL
same,MIC,[24],6.3 µg/mL
same,MIC,[25],12.5 µg/mL
same,MIC,[26],1.6 µg/mL
same,MIC,[27],0.4 µg/mL
same,MIC,[28],3.1 µg/mL
same,MIC,[29],25 µg/mL
same,MIC,[30],1.6 µg/mL
same,MIC,[31],0.4 µg/mL
"CC(C)(O/N=C(\C(=O)NC1C(=O)N2C(C(=O)[O-])=C(/C=C/C[N+](C)(C)CCc3ccc(O)c(O)c3)CS[C@H]12)c1csc(N)n1)C(=O)O (stereo partly shown) [Iq, 7-[(Z)-2-(2-Aminothiazol-4-yl)-2-(1-carboxy-1-methylethoxy-imino)acetamido]-3-[(E)-3-(3,4-dihydroxyphenethyldimethyl-ammonio)-1-propen-1-yl]-3-cephem-4-carboxylate]",MIC,[32],0.59 µg/mL
same,MIC,[33],0.17 µg/mL
same,MIC,[34],0.8 µg/mL
same,MIC,[35],25 µg/mL
same,MIC,[36],0.13 µg/mL
same,MIC,[37],13 µg/mL
